Laboratory results published in paper PMC9696974 (Pharmaceutics, 2022).

Experiments:
A549 cells = test: Detection of total ROS (DCF, flow cytometry); assay type: cell-based, human; settings: A549, 10 µM
Method: Detection of total ROS. For detecting total ROS, A549 cells were seeded in 12-well tissue culture plates and 24 h after were treated with a 10 μM working solution of the respective compound and incubated for 90 min (37 °C, 5% CO2), allowing the compound to enter to cells. The same dilution of DMSO served as a control, while H2O2 (0.002%) was used as a positive control. One plate was irradiated with UV light (350 nm) for 5 min, and was analysed immediately after UV exposure. The plate that was not irradiated with UV light served as the control, and was incubated in the cell incubator (37°C, 5% CO2) during the whole experiment. Subsequently, cells were washed with PBS, trypsinised, resuspended with cold PBS supplemented with 10% FBS and centrifuged for 5 min (RT, 1100 g). Cell pellets were resuspended and washed again, but this time with cold PBS supplemented with 1% FBS and centrifuged for 5 min (RT, 1100 g). After the second washing, cell pellets were resuspended in 5 μM 2′,7′–dichloro-fluorescin diacetate (H2DCFDA, Sigma, USA) which is converted to dichlorofluorescein (DCF) in contact with ROS. Unstained cells were resuspended in PBS supplemented with 1% FBS. Cells were then analysed by flow cytometry using FACSCalibur (BD Biosciences, San Jose, CA, USA).

[1] = target: GC-DNA (poly dGdC-poly dGdC); test: Fluorimetric titration with GC-DNA, Scatchard equation; assay type: binding; settings: pH 7, sodium cacodylate buffer, I = 0.05 M
Method: (§1) Experiments were conducted in an aqueous buffer solution (pH = 7.0 or pH= 5.0, I = 0.05 M, sodium cacodylate buffer). For the UV-Vis spectra were used Varian Cary 100 Bio spectrometer, for fluorescence spectra we used the Varian Cary Eclipse fluorimeter and for CD spectra we used the JASCO J815 spectropolarimeter, all conducted at 25.0 °C using appropriate quartz cuvettes (path length: 1 cm).
(§2) Polynucleotides were purchased as noted: poly dAdT-poly dAdT, poly dGdC-poly dGdC, poly A-poly U (ds-RNA), (Sigma-Aldrich, Schnelldorf, Germany), calf thymus (ct)-DNA (Sigma-Aldrich, Schnelldorf, Germany) and dissolved in sodium cacodylate buffer, I = 0.05 M, pH = 7.0. The ct-DNA was sonicated and filtered through a 0.45 µm filter to obtain mostly short (ca. 100 base pairs) rod-like B-helical DNA fragments. The concentration of DNA or RNA was determined spectroscopically as the c(nucleobase) using producer-provided molar extinction coefficients.
(§3) Fortunately, strong emission from the compounds studied allowed fluorimetric titrations to be performed at much lower concentrations of the dyes (c = 5 × 10^−8 M), thus preventing precipitation of non-methylated 1 or 2, and allowing for the collection of numerous data points at excess of DNA/RNA binding sites over c(dye). […]

[2] = tested on: poly dGdC-poly dGdC (GC-DNA, p(dGdC)2) (DNA, polymer) GC; test: fluorimetric titration, Scatchard; settings: Na+ (sodium cacodylate, I = 0.05 M); pH 7.0, 25 °C; Scatchard n fixed at 0.2 or 0.3; per base
AU-RNA (poly A-poly U) = test: Fluorimetric titration with AU-RNA, Scatchard equation; assay type: binding; settings: pH 7, sodium cacodylate buffer, I = 0.05 M
Method: as §1, §2, §3

[3] = tested on: poly dAdT-poly dAdT (AT-DNA, p(dAdT)2) (DNA, polymer) AT; test: fluorimetric titration, Scatchard; settings: Na+ (sodium cacodylate, I = 0.05 M); pH 7.0, 25 °C; Scatchard n fixed at 0.2 or 0.3; per base
WI-38 cells = test: MTT cell viability assay, WI-38, with or without UV light; assay type: cell-based, human; settings: WI-38, 10 μM and 1 μM, without UV
Method: Cells. Commercially available from American Type Culture Collection (ATCC), human epithelial lung adenocarcinoma A549 (ATCC® CCL-185™) and human normal lung fibroblast WI-38 (ATCC® CCL-75™) were grown according to supplier’s conditions, namely in Dulbecco Modified Eagle’s Medium (DMEM, Sigma Aldrich, St. Louis, MO, USA) supplemented with 10% of fetal bovine serum (FBS, Sigma Aldrich, USA). Cells were incubated in the cell incubator (Thermo Fischer Scientific, Waltham, MA, USA) at 37 °C and 5% CO2 in a humidified atmosphere.
Cell viability assay. In order to obtain a 10 mM stock solution chemical compounds (2M, 1, and 1M) were sterilely diluted in an appropriate volume of dimethyl sulfoxide solution (DMSO, Gram-Mol, Zagreb, Croatia). Solutions were kept in the dark and stored at 4 °C. The cytotoxic effects of each compound were assayed on A549 and WI-38 cells. […] Briefly, cells were seeded in 96-well tissue culture plates and 24 h later treated with 2M, 1, or 1M in the concentration range of 10–0.1 μM. Cells treated with the same dilutions of DMSO represented the control, while cells treated only with DMEM (10% FBS) represented the negative control. […] The resulting MTT-formazan products were dissolved using DMSO, and their absorbance at 600 nm was measured using a microplate reader. […]

[4] = tested on: poly A-poly U (AU-RNA, pApU) (RNA, polymer) A/U; test: UV thermal denaturation at 260 nm; settings: Na+ (sodium cacodylate, I = 50 mM); pH 7.0; r = [compound]/[polynucleotide] = 0.2; error ± 0.5 °C; per base
[5] = target: AT-DNA (poly dAdT-poly dAdT); test: Fluorimetric titration with AT-DNA, Scatchard equation; assay type: binding; settings: pH 7, sodium cacodylate buffer, I = 0.05 M
Method: as §1, §2, §3

Compound	Intracellular ROS production (A549 cells; UV light 350 nm 5 min)	Binding constant logKs GC-DNA [1]	logKs [2]	Intracellular ROS production (A549 cells; kept in dark)	Binding constant logKs AU-RNA (AU-RNA (poly A-poly U))	logKs [3]	Cytotoxic effect relative to A549 (WI-38 cells)	∆Tm [4] [°C]	Binding constant logKs AT-DNA [5]
c1cc2ccc3cc(-c4ccncc4)cc4ccc(c1)c2c34 [compound 1]	immediate and strong increase in ROS production	–	–	–	–	–	–	–	–
C[n+]1ccc(-c2cc3ccc4cccc5ccc(c2)c3c45)cc1 [1M, 2-para-N-methylpyridinium pyrene]	immediate and strong increase in ROS production	7.0	7.0	induced the production of intracellular ROS	5.8	5.9	somewhat more resilient	3	5.9
C[n+]1ccc(-c2cc3ccc4cc(-c5cc[n+](C)cc5)cc5ccc(c2)c3c45)cc1 [2M]	immediate and strong increase in ROS production	9.1	9.1	–	8.5	7.1	somewhat more resilient	4	7.1
